# Source: ChEMBL document CHEMBL3616391, “Fatty Acid Synthase (FASN) Inhibitors as Potential Treatment for Cancer, Obesity, and Liver Related Disorders” (ACS Med Chem Lett, 2015)
# pIC50: −log10 of the molar value.
# Legend:
# [1] = test system: A2780; experiment: Antiproliferative activity against human A2780 cells in lipid reduced medium in presence of palmitate; format: functional, cell-based
# [2] = test system: A2780; experiment: Antiproliferative activity against human A2780 cells in lipid reduced medium in absence of palmitate; format: functional, cell-based
# [3] = test system: PC-3M; experiment: Antiproliferative activity against human PC3M cells expressing Luc-C6 in lipid reduced medium; format: functional, cell-based
# [4] = test system: LNCaP; experiment: Antiproliferative activity against human LNCAP cells in lipid reduced medium; format: functional, cell-based
# [5] = target: Fatty acid synthase (Homo sapiens, UniProt P49327); experiment: Inhibition of fatty acid synthase keto-reductase domain (unknown origin)
# Sequence of Fatty acid synthase (P49327 whole entry, the tested form may be a part): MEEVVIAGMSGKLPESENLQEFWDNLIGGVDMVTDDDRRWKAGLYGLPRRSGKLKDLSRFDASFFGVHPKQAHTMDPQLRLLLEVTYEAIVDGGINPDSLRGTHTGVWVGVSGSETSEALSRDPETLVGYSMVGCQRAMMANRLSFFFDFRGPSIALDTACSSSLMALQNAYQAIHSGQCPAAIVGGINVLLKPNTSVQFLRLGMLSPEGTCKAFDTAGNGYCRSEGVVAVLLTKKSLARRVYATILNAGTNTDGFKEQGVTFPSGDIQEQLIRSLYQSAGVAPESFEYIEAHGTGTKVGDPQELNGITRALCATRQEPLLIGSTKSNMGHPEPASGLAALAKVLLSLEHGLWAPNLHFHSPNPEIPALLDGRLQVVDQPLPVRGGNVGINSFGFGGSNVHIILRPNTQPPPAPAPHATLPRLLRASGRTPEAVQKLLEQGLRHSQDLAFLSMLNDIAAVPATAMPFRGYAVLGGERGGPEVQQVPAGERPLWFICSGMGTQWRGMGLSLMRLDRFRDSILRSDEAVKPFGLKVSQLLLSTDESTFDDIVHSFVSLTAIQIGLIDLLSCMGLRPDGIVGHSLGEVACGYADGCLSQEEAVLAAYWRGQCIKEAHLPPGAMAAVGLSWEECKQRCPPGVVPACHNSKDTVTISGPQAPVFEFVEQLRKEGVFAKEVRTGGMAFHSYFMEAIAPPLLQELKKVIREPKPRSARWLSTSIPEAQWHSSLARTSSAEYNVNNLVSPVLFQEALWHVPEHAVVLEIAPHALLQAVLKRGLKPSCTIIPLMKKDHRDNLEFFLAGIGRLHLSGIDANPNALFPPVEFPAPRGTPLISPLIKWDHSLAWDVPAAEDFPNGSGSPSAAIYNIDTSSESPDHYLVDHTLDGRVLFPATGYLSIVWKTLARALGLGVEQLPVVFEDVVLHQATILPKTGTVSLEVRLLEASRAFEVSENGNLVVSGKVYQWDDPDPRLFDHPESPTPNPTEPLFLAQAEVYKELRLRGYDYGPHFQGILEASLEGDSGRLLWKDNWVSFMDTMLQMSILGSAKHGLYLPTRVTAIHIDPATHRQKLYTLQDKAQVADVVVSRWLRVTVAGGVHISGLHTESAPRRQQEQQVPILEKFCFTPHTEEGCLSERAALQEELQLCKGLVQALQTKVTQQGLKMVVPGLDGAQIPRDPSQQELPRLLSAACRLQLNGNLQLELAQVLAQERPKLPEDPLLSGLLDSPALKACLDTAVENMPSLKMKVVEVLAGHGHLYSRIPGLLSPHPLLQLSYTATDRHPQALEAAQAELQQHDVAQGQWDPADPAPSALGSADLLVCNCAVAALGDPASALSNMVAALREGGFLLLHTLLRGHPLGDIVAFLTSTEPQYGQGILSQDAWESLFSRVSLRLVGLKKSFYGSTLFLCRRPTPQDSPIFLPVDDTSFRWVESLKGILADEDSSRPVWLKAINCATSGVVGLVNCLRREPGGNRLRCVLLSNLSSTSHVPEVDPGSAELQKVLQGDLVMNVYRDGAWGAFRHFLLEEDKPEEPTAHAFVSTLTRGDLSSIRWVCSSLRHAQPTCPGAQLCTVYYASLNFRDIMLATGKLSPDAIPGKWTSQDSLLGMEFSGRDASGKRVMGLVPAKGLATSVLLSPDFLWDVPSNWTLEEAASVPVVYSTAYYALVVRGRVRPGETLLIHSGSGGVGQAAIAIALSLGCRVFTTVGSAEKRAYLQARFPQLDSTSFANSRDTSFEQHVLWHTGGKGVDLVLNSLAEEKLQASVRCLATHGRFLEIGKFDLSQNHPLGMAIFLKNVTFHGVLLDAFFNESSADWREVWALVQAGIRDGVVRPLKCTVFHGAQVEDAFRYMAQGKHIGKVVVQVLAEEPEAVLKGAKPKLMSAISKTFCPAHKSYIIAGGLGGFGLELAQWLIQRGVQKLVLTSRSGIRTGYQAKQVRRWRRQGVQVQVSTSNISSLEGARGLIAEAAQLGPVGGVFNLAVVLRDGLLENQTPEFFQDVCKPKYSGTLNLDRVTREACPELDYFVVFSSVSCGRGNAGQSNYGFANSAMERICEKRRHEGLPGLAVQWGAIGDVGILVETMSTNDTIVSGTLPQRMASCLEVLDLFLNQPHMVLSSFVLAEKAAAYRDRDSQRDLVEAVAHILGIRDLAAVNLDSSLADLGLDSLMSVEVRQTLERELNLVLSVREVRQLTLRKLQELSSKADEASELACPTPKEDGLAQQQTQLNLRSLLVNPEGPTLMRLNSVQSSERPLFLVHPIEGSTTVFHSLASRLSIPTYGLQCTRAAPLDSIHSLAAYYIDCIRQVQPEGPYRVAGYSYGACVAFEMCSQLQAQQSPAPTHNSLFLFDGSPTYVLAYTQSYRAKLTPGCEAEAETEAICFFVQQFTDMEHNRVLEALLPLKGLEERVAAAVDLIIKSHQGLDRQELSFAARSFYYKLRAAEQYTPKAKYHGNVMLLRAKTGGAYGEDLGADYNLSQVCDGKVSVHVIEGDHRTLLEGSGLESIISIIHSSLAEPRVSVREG
pIC50 [1],pIC50 [2],pIC50 [3],pIC50 [4],pIC50 [5],SMILES
< 5.00,7.13,,,,CC1(C)N=C(c2ccc(-c3ccc4[nH]ccc4c3)cc2)N(C[C@@H]2CCN(C(=O)C3CC3)C2)C1=O
< 5.00,7.12,7.27,6.66,7.25,CC1(C)N=C(c2ccc(-c3ccc4cccnc4c3)cc2)N(C[C@@H]2CCN(C(=O)C3CC3)C2)C1=O
5.25,6.33,,5.69,,CC1(C)N=C(c2ccc(-c3ccc4cccc(F)c4c3)cc2)N(CC2CN(C(=O)C3CC3)C2)C1=O
,,6.88,6.14,,Cn1ncc2cc(-c3ccc(C4=NC(C)(C)C(=O)N4C[C@@H]4CCN(C(=O)C5CC5)C4)c(F)c3)ccc21
< 5.00,5.03,,,,CC1(C)N=C(c2ccc(-c3nc4ccccc4[nH]3)cc2)N(C[C@@H]2CCN(C(=O)C3CC3)C2)C1=O
< 5.00,8.27,,,,Cn1cc(-c2ccc(-c3ccc(C4=NC(C)(C)C(=O)N4C[C@@H]4CCN(C(=O)C5(O)CC5)C4)c(F)c3)cc2)cn1
